{
  "source": "PubChem BioAssay (NCI)",
  "experiment_in_all_cases": "growth of human tumour cells (NCI), 48 h",
  "key": {"786-0 renal": {"test_system": "786-0 renal"}, "A498 renal": {"test_system": "A498 renal"}, "A549 NSCLC": {"test_system": "A549 NSCLC"}, "ACHN renal": {"test_system": "ACHN renal"}, "BT-549 breast": {"test_system": "BT-549 breast"}, "CAKI-1 renal": {"test_system": "CAKI-1 renal"}, "CCRF-CEM leukemia": {"test_system": "CCRF-CEM leukemia"}, "COLO 205 colon": {"test_system": "COLO 205 colon"}, "DU-145 prostate": {"test_system": "DU-145 prostate"}, "EKVX NSCLC": {"test_system": "EKVX NSCLC"}, "HCC-2998 colon": {"test_system": "HCC-2998 colon"}, "HCT-116 colon": {"test_system": "HCT-116 colon"}, "HCT-15 colon": {"test_system": "HCT-15 colon"}, "HL-60(TB) leukemia": {"test_system": "HL-60(TB) leukemia"}, "HOP-62 NSCLC": {"test_system": "HOP-62 NSCLC"}, "HOP-92 NSCLC": {"test_system": "HOP-92 NSCLC"}, "HS 578T breast": {"test_system": "HS 578T breast"}, "HT29 colon": {"test_system": "HT29 colon"}, "IGROV1 ovarian": {"test_system": "IGROV1 ovarian"}, "KM12 colon": {"test_system": "KM12 colon"}, "LOX IMVI melanoma": {"test_system": "LOX IMVI melanoma"}, "M14 melanoma": {"test_system": "M14 melanoma"}, "MALME-3M melanoma": {"test_system": "MALME-3M melanoma"}, "MCF7 breast": {"test_system": "MCF7 breast"}, "MDA-MB-231 breast": {"test_system": "MDA-MB-231 breast"}, "MDA-MB-435": {"test_system": "MDA-MB-435"}, "MDA-N": {"test_system": "MDA-N"}, "MOLT-4 leukemia": {"test_system": "MOLT-4 leukemia"}, "NCI-H226 lung": {"test_system": "NCI-H226 lung"}, "NCI-H23 lung": {"test_system": "NCI-H23 lung"}, "NCI-H460 lung": {"test_system": "NCI-H460 lung"}, "NCI-H522 lung": {"test_system": "NCI-H522 lung"}, "NCI/ADR-RES ovarian": {"test_system": "NCI/ADR-RES ovarian"}, "OVCAR-3 ovarian": {"test_system": "OVCAR-3 ovarian"}, "OVCAR-4 ovarian": {"test_system": "OVCAR-4 ovarian"}, "OVCAR-5 ovarian": {"test_system": "OVCAR-5 ovarian"}, "OVCAR-8 ovarian": {"test_system": "OVCAR-8 ovarian"}, "PC-3 prostate": {"test_system": "PC-3 prostate"}, "RPMI-8226 leukemia": {"test_system": "RPMI-8226 leukemia"}, "RXF 393 renal": {"test_system": "RXF 393 renal"}, "SF-268 CNS": {"test_system": "SF-268 CNS"}, "SF-295 CNS": {"test_system": "SF-295 CNS"}, "SF-539 CNS": {"test_system": "SF-539 CNS"}, "SK-MEL-2 melanoma": {"test_system": "SK-MEL-2 melanoma"}, "SK-MEL-28 melanoma": {"test_system": "SK-MEL-28 melanoma"}, "SK-MEL-5 melanoma": {"test_system": "SK-MEL-5 melanoma"}, "SK-OV-3 ovarian": {"test_system": "SK-OV-3 ovarian"}, "SNB-19 CNS": {"test_system": "SNB-19 CNS"}, "SNB-75 CNS": {"test_system": "SNB-75 CNS"}, "SR leukemia": {"test_system": "SR leukemia"}, "SW-620 colon": {"test_system": "SW-620 colon"}, "T-47D breast": {"test_system": "T-47D breast"}, "TK-10 renal": {"test_system": "TK-10 renal"}, "U251 CNS": {"test_system": "U251 CNS"}, "UACC-257 melanoma": {"test_system": "UACC-257 melanoma"}, "UACC-62 melanoma": {"test_system": "UACC-62 melanoma"}, "UO-31 renal": {"test_system": "UO-31 renal"}},
  "note": "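96-well plates; 48 h exposure; 5 concentrations. Endpoints by linear interpolation between flanking doses. Not reached: highest tested concentration assigned. TGI is the concentration that stops growth completely.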",
  "data": [
    {"smiles": "C=C1[C@H](OC(=O)C(C)C)[C@]23CC4(O)[C@@H]5[C@@]6(C)CCC[C@]57C([C@@H]2C[C@@]1(O)[C@H](O)[C@@H]73)N4C6", "values": [
      {"measurement": "TGI", "setting": "786-0 renal", "result": "> 100", "unit": "µM"},
      {"measurement": "TGI", "setting": "A498 renal", "result": "> 100", "unit": "µM"},
      {"measurement": "TGI", "setting": "A549 NSCLC", "result": "> 100", "unit": "µM"},
      {"measurement": "TGI", "setting": "ACHN renal", "result": "> 100", "unit": "µM"},
      {"measurement": "TGI", "setting": "BT-549 breast", "result": "> 100", "unit": "µM"},
      {"measurement": "TGI", "setting": "CAKI-1 renal", "result": "> 100", "unit": "µM"},
      {"measurement": "TGI", "setting": "CCRF-CEM leukemia", "result": "> 100", "unit": "µM"},
      {"measurement": "TGI", "setting": "COLO 205 colon", "result": "> 100", "unit": "µM"},
      {"measurement": "TGI", "setting": "DU-145 prostate", "result": "> 100", "unit": "µM"},
      {"measurement": "TGI", "setting": "EKVX NSCLC", "result": "> 100", "unit": "µM"},
      {"measurement": "TGI", "setting": "HCC-2998 colon", "result": 72.3, "unit": "µM"},
      {"measurement": "TGI", "setting": "HCT-116 colon", "result": "> 100", "unit": "µM"},
      {"measurement": "TGI", "setting": "HCT-15 colon", "result": "> 100", "unit": "µM"},
      {"measurement": "TGI", "setting": "HL-60(TB) leukemia", "result": "> 100", "unit": "µM"},
      {"measurement": "TGI", "setting": "HOP-62 NSCLC", "result": "> 100", "unit": "µM"},
      {"measurement": "TGI", "setting": "HOP-92 NSCLC", "result": "> 100", "unit": "µM"},
      {"measurement": "TGI", "setting": "HS 578T breast", "result": "> 100", "unit": "µM"},
      {"measurement": "TGI", "setting": "HT29 colon", "result": "> 100", "unit": "µM"},
      {"measurement": "TGI", "setting": "IGROV1 ovarian", "result": "> 100", "unit": "µM"},
      {"measurement": "TGI", "setting": "KM12 colon", "result": "> 100", "unit": "µM"},
      {"measurement": "TGI", "setting": "LOX IMVI melanoma", "result": "> 100", "unit": "µM"},
      {"measurement": "TGI", "setting": "M14 melanoma", "result": "> 100", "unit": "µM"},
      {"measurement": "TGI", "setting": "MALME-3M melanoma", "result": "> 100", "unit": "µM"},
      {"measurement": "TGI", "setting": "MCF7 breast", "result": "> 100", "unit": "µM"},
      {"measurement": "TGI", "setting": "MDA-MB-231 breast", "result": "> 100", "unit": "µM"},
      {"measurement": "TGI", "setting": "MDA-MB-435", "result": "> 100", "unit": "µM"},
      {"measurement": "TGI", "setting": "MDA-N", "result": "> 100", "unit": "µM"},
      {"measurement": "TGI", "setting": "MOLT-4 leukemia", "result": "> 100", "unit": "µM"},
      {"measurement": "TGI", "setting": "NCI-H226 lung", "result": "> 100", "unit": "µM"},
      {"measurement": "TGI", "setting": "NCI-H23 lung", "result": "> 100", "unit": "µM"},
      {"measurement": "TGI", "setting": "NCI-H460 lung", "result": "> 100", "unit": "µM"},
      {"measurement": "TGI", "setting": "NCI-H522 lung", "result": "> 100", "unit": "µM"},
      {"measurement": "TGI", "setting": "NCI/ADR-RES ovarian", "result": "> 100", "unit": "µM"},
      {"measurement": "TGI", "setting": "OVCAR-3 ovarian", "result": "> 100", "unit": "µM"},
      {"measurement": "TGI", "setting": "OVCAR-4 ovarian", "result": "> 100", "unit": "µM"},
      {"measurement": "TGI", "setting": "OVCAR-5 ovarian", "result": "> 100", "unit": "µM"},
      {"measurement": "TGI", "setting": "OVCAR-8 ovarian", "result": "> 100", "unit": "µM"},
      {"measurement": "TGI", "setting": "PC-3 prostate", "result": "> 100", "unit": "µM"},
      {"measurement": "TGI", "setting": "RPMI-8226 leukemia", "result": "> 100", "unit": "µM"},
      {"measurement": "TGI", "setting": "RXF 393 renal", "result": "> 100", "unit": "µM"},
      {"measurement": "TGI", "setting": "SF-268 CNS", "result": "> 100", "unit": "µM"},
      {"measurement": "TGI", "setting": "SF-295 CNS", "result": "> 100", "unit": "µM"},
      {"measurement": "TGI", "setting": "SF-539 CNS", "result": "> 100", "unit": "µM"},
      {"measurement": "TGI", "setting": "SK-MEL-2 melanoma", "result": "> 100", "unit": "µM"},
      {"measurement": "TGI", "setting": "SK-MEL-28 melanoma", "result": "> 100", "unit": "µM"},
      {"measurement": "TGI", "setting": "SK-MEL-5 melanoma", "result": "> 100", "unit": "µM"},
      {"measurement": "TGI", "setting": "SK-OV-3 ovarian", "result": "> 100", "unit": "µM"},
      {"measurement": "TGI", "setting": "SNB-19 CNS", "result": "> 100", "unit": "µM"},
      {"measurement": "TGI", "setting": "SNB-75 CNS", "result": "> 100", "unit": "µM"},
      {"measurement": "TGI", "setting": "SR leukemia", "result": "> 100", "unit": "µM"},
      {"measurement": "TGI", "setting": "SW-620 colon", "result": "> 100", "unit": "µM"},
      {"measurement": "TGI", "setting": "T-47D breast", "result": "> 100", "unit": "µM"},
      {"measurement": "TGI", "setting": "TK-10 renal", "result": "> 100", "unit": "µM"},
      {"measurement": "TGI", "setting": "U251 CNS", "result": "> 100", "unit": "µM"},
      {"measurement": "TGI", "setting": "UACC-257 melanoma", "result": "> 100", "unit": "µM"},
      {"measurement": "TGI", "setting": "UACC-62 melanoma", "result": "> 100", "unit": "µM"},
      {"measurement": "TGI", "setting": "UO-31 renal", "result": "> 100", "unit": "µM"}
    ]}
  ]
}
